Reference: patent US9751875B2, “Quinine compounds, and optical isomers, preparation method and medical use thereof” (BEIJING FSWELCOME TECHNOLOGY DEVELOPMENT CO., LTD., priority 2013, dated 2017)
Like-named read-outs stand apart in the source and are kept apart here.

How the values were obtained:
[1] = tested on: tracheal smooth muscle from guinea pigs (contraction induced by 3 × 10^−6 mol/L of CCh); assay: Antagonism in vitro of contraction of isolated tracheal smooth muscle from guinea pigs induced by carbachol (CCh); type: cell-based, guinea pig; details: cumulative dosing
Text: Preparation of the Isolated Tracheal Smooth Muscle Specimen from a Guinea Pig:
After a guinea pig was narcotized with urethane, the trachea between the throat and carina of the guinea pig was taken out rapidly, and placed in the Krebs-Henseleit (K-H) solution (composition (g/L): NaCl 6.92, KCl 0.35, CaCl2 0.28, KH2PO4 0.16, MgSO4.7H2O 0.4568, NaHCO3 2.1, Glucose 2.0) with a mixture gas of 5% CO2 and 95% O2 purged. After loose connective tissues and fats around the trachea were separated, the trachea was cut into trachea pieces having a width of about 3 mm and a length of 20 mm by a surgical scissor, with both ends of the trachea piece ligated with 4˜0 silk suture, and then placed into a thermostatic bath containing 5 ml of K—H solution (pH 7.4) at 37° C., with the mixture gas of 5% CO2 and 95% O2 continuously purged. A muscle tension transducer was connected to the upper end so as to apply 1.0 g of resting tension to the specimen, the change of the tension was recorded, the culture solution was replaced every 20 min, and the test was started after being balanced for 60 min.
Administration method: After the trachea piece was stabilized, 3×10^−6 mol/L of CCh was added into a bath, and after the contractile tension of the trachea piece reached a peak level, the example compounds, ipratropium bromide and tiotropium bromide were added into a Magnus bath by a cumulative dosing regimen with a dosage of 10^−9˜10^−5 mol, respectively, and the diastolic condition of the trachea piece was observed: if no response occurred (below the threshold concentration), a next dosage was continued to be added in sequence; if response occurred, after it reached a diastolic plateau, a next dosage was further added. The above operation was repeated until the contractile curve reached the minimum value. Finally, 10^−6 mol/L of isoprenaline was added so that the maximum relaxation would be reached and the curve was recorded.
Statistical approach: The result was expressed as mean ±standard deviation, and counted by Sigma Stat statistical package. The data was analyzed by using variance analysis, the comparison among means of a plurality of specimen was performed by using Student-Newman-Keuls(SNK) test; statistical significant level α=0.05 (bilateral).
Compounds shown in Table 5 were further prepared according to the present invention, and their IC50 […] of resistance to the contraction of tracheal smooth muscle from guinea pigs induced by a concentration of 3×10^−6 mol/L of CCh was determined.

[2] = tested on: tracheal smooth muscle from guinea pigs (contraction induced by 3 × 10^−6 mol/L of CCh); assay: as above; type: cell-based, guinea pig
[3] = Cavia porcellus, read-out: IC50 (μM), antagonism in vitro against the contraction of the tracheal smooth muscle induced by CCh, 3 × 10^−6 mol/L of CCh
[4] = 3 × 10^−6 mol/L of CCh, read-out: IC50 (μM), antagonism in vitro against the contraction of the tracheal smooth muscle induced by CCh
[5] = read-out: IC50 (μM), antagonism in vitro against the contraction of the tracheal smooth muscle induced by CCh, 3 × 10^−6 mol/L of CCh
[6] = Cavia porcellus, 3 × 10^−6 mol/L of CCh, read-out: IC50 (μM), antagonism in vitro against the contraction of the tracheal smooth muscle induced by CCh

| Compound | IC50 [1, 3] [µM] | Onset time [2] [min] | Time for eliminating inhibition effect (min) [2] | IC50 [1, 4] [µM] | IC50 [1, 5] [µM] | IC50 [1, 6] [µM] |
| --- | --- | --- | --- | --- | --- | --- |
| COC(COC1C[N+]2(CCCOc3ccccc3)CCC1CC2)(c1cccnc1)C1CCCC1.[Br-] [Example 33, (2R,3R)-3-[(2-cyclopentyl-2-methoxyl-2-(3-pyridyl))ethoxyl]-1-(3-phenoxypropyl)-1-azabicyclo[2,2,2]octane bromide] | 0.139 | 6.17 | more than 300 min |  |  |  |
| OC(CO[C@H]1C[N+]2(CCCOc3ccccc3)CCC1CC2)(c1ccccc1)C1CCC1 (stereo partly drawn) [Example 17, (2R,3S),(2S,3R)-3-[(2-cyclobutyl-2-hydroxyl-2-phenyl)ethoxyl]-1-(3-phenoxypropyl)-1-azabicyclo[2,2,2]octane bromide] |  | 7.05 | more than 300 min | 1.57 |  |  |
| OC(CO[C@@H]1C[N+]2(CCCOc3ccccc3)CCC1CC2)(c1ccccc1)C1CC1.[Br-] (stereo partly drawn) [Example 21, (2S,3R)-3-[(2-cyclopropyl-2-hydroxyl-2-phenyl)ethoxyl]-1-(3-phenoxypropyl)-1-azabicyclo[2,2,2]octane bromide] |  | 6.79 | more than 300 min |  | 1.35 |  |
| OC(COC1C[N+]2(CCCOc3ccccc3)CCC1CC2)(c1cccnc1)C1CCCC1.[Br-] [Example 31, (2R,3R)-3-[(2-cyclopentyl-2-hydroxyl-2-(3-pyridyl))ethoxyl]-1-(3-phenoxypropyl)-1-azabicyclo[2,2,2]octane bromide] | 0.0206 | 6.37 | more than 300 min |  |  |  |
| OC(CO[C@H]1C[N+]2(CCCOc3ccccc3)CCC1CC2)(c1ccccc1)C1CC1 (stereo partly drawn) [Example 19, (2R,3S)-3-[(2-cyclopropyl-2-hydroxyl-2-phenyl)ethoxyl]-1-(3-phenoxypropyl)-1-azabicyclo[2,2,2]octane bromide] |  | 6.68 | more than 300 min |  |  | 1.76 |
| OC(CO[C@@H]1C[N+]2(CCOc3ccccc3)CCC1CC2)(c1ccccc1)C1CCCC1.[Br-] (stereo partly drawn) [Example 25, (2S,3R)-3-[(2-cyclopentyl-2-hydroxyl-2-phenyl)ethoxyl]-1-(2-phenoxyethyl)-1-azabicyclo[2,2,2]octane bromide] | 0.867 | 6.36 | more than 300 min |  |  |  |
| OC(COC1C[N+]2(CCCOc3ccccc3)CCC1CC2)(c1ccccc1Cl)C1CCCC1.[Br-] [Example 30, (2R,3R)-3-[(2-cyclopentyl-2-hydroxyl-2-o-chlorophenyl)ethoxyl]-1-(3-phenoxypropyl)-1-azabicyclo[2,2,2]octane bromide] | 0.0371 | 5.98 | more than 300 min |  |  |  |
| OC(COC1C[N+]2(CCCOc3ccccc3)CCC1CC2)(c1cccc2ccccc12)C1CCCC1.[Br-] [Example 29, (2R,3R)-3-[(2-cyclopentyl-2-hydroxyl-2-naphthyl)ethoxyl]-1-(3-phenoxypropyl)-1-azabicyclo[2,2,2]octane bromide] | 0.723 | 7.14 | more than 300 min |  |  |  |
| (2R,3S),(2S,3R)-3-[(2-cyclopropyl-2-hydroxyl-2-phenyl)ethoxyl]-1-(3-phenoxypropyl)-1-azabicyclo[2,2,2]octane bromide [Example 23] |  | 6.78 | more than 300 min | 2.02 |  |  |
| OC(CO[C@H]1C[N+]2(CCCOc3ccccc3)CCC1CC2)(c1ccccc1)C1CCCC1.[Br-] (stereo partly drawn) [Example 2, (2S,3S)-3-[(2-cyclopentyl-2-hydroxyl-2-phenyl)ethoxyl]-1-(3-phenoxypropyl)-1-azabicyclo[2,2,2]octane bromide] |  | 6.53 | more than 300 min |  | 2.85 |  |
| OC(CO[C@H]1C[N+]2(CCCOc3ccccc3)CCC1CC2)(c1ccccc1)C1CCC1 (stereo partly drawn) [Example 13, (2R,3S)-3-[(2-cyclobutyl-2-hydroxyl-2-phenyl)ethoxyl]-1-(3-phenoxypropyl)-1-azabicyclo[2,2,2]octane bromide] |  | 7.25 | more than 300 min |  |  | 0.917 |
| OC(CO[C@@H]1C[N+]2(COCOc3ccccc3)CCC1CC2)(c1ccccc1)C1CCCC1.[Cl-] (stereo partly drawn) [Example 28, (2R,3R)-3-[(2-cyclopentyl-2-hydroxyl-2-phenyl)ethoxyl]-1-phenoxymethoxymethyl-1-azabicyclo[2,2,2]octane chloride] |  | 6.06 | more than 300 min |  |  | 0.0264 |
| OC(CO[C@H]1C[N+]2(CCCOc3ccccc3)CCC1CC2)(c1ccccc1)C1CCCCC1 (stereo partly drawn) [Example 11, (2R,3S),(2S,3R) Configuration of 3-[(2-cyclohexyl-2-hydroxyl-2-phenyl)ethoxyl]-1-(3-phenoxypropyl)-1-azabicyclo[2,2,2]octane bromide] |  | 6.77 | more than 300 min |  |  | 1.36 |
| OC(CO[C@H]1C[N+]2(CCCOc3ccccc3)CCC1CC2)(c1ccccc1)C1CCC1 (stereo partly drawn) [Example 18, (2R,3R),(2S,3S)-3-[(2-cyclobutyl-2-hydroxyl-2-phenyl)ethoxyl]-1-(3-phenoxypropyl)-1-azabicyclo[2,2,2]octane bromide] |  | 6.92 | more than 300 min | 0.156 |  |  |
| OC(CO[C@@H]1C[N+]2(CCCOc3ccccc3)CCC1CC2)(c1ccccc1)C1CCCC1.[Br-] (stereo partly drawn) [Example 3, (2S,3R)-3-[(2-cyclopentyl-2-hydroxyl-2-phenyl)ethoxyl]-1-(3-phenoxypropyl)-1-azabicyclo[2,2,2]octane bromide] |  | 6.54 | more than 300 min |  | 0.852 |  |
